{"source": "PubChem BioAssay AID1259409", "about": "(Chemical Carcinogenesis Research Information System (CCRIS), 2018)", "origin": "cited, not measured here", "system": "rodent chemically induced tumor inhibition, incidence and multiplicity", "test": "CCRIS tumor inhibitor studies", "data": [{"molecule": "Cc1c(C)c2c(c(C)c1O)CCC(C)(COc1ccc(CC3SC(=O)NC3=O)cc1)O2", "note": "(stereo not given)", "values": [{"measurement": "tumour outcome (control, treated, inhibition, significance)", "setting": "Carcinogen: 4-NITROQUINOLINE 1-OXIDE, 56-57-5, Dose [Inhibitor]: 0, 30 PPM IN DIET FOR 22 WK BEGINNING 1 WK POST FINAL CARCINOGEN DOSE (STUDY DURATION: 31 WK), Route [Inhibitor]: ORAL, Species: RAT, Strain/Sex: F344/MALE, Target Tissue: Type of Lesion: TONGUE: PAPILLOMA, Dose [Carcinogen]: 20 PPM IN DRINKING WATER FOR 8 WK", "value": "3/24 (12.5%), 0/19 (0%), 100%, not significant"}, {"measurement": "tumour outcome (control, treated, inhibition, significance)", "setting": "Carcinogen: 4-NITROQUINOLINE 1-OXIDE, 56-57-5, Dose [Inhibitor]: 0, 30 PPM IN DIET FOR 22 WK BEGINNING 1 WK POST FINAL CARCINOGEN DOSE (STUDY DURATION: 31 WK), Route [Inhibitor]: ORAL, Species: RAT, Strain/Sex: F344/MALE, Target Tissue: Type of Lesion: TONGUE: SQUAMOUS CELL CARCINOMA, Dose [Carcinogen]: 20 PPM IN DRINKING WATER FOR 8 WK", "value": "11/24 (45.8%), 5/19 (26.3%), 42.6%, not significant"}, {"measurement": "tumour outcome (control, treated, inhibition, significance)", "setting": "Carcinogen: 4-NITROQUINOLINE 1-OXIDE, 56-57-5, Dose [Inhibitor]: 0, 100 PPM IN DIET FOR 22 WK BEGINNING 1 WK POST FINAL CARCINOGEN DOSE (STUDY DURATION: 31 WK), Route [Inhibitor]: ORAL, Species: RAT, Strain/Sex: F344/MALE, Target Tissue: Type of Lesion: TONGUE: PAPILLOMA, Dose [Carcinogen]: 20 PPM IN DRINKING WATER FOR 8 WK", "value": "3/24 (12.5%), 3/20 (15%), -20%, not significant"}, {"measurement": "tumour outcome (control, treated, inhibition, significance)", "setting": "Carcinogen: 4-NITROQUINOLINE 1-OXIDE, 56-57-5, Dose [Inhibitor]: 0, 100 PPM IN DIET FOR 22 WK BEGINNING 1 WK POST FINAL CARCINOGEN DOSE (STUDY DURATION: 31 WK), Route [Inhibitor]: ORAL, Species: RAT, Strain/Sex: F344/MALE, Target Tissue: Type of Lesion: TONGUE: SQUAMOUS CELL CARCINOMA, Dose [Carcinogen]: 20 PPM IN DRINKING WATER FOR 8 WK", "value": "11/24 (45.8%), 1/20 (5%), 89.1%, p< 0.005"}, {"measurement": "tumour outcome (control, treated, inhibition, significance)", "setting": "Carcinogen: AZOXYMETHANE (25843-45-2), Dose [Inhibitor]: 0, 0.05% ADMINISTERED 1 WK AFTER END OF DEXTRAN SODIUM SULFATE TREATMENT FOR 14 WKS (STUDY DURATION: 17 WKS), Route [Inhibitor]: DIET, Species: MOUSE, Strain/Sex: CD-1/FEMALE (10,10)/(10,10), Target Tissue: Type of Lesion: COLON: ADENOCARCINOMA, Dose [Carcinogen]: 10 MG/KG ONCE, Promoter: DEXTRAN SODIUM SULFATE (9011-18-1)", "value": "10/10 (100%), 4/10 (40%), 60%, p<0.01"}, {"measurement": "tumour outcome (control, treated, inhibition, significance)", "setting": "Carcinogen: AZOXYMETHANE (25843-45-2), Dose [Inhibitor]: 0, 0.05% ADMINISTERED 1 WK AFTER END OF DEXTRAN SODIUM SULFATE TREATMENT FOR 14 WKS (STUDY DURATION: 17 WKS), Route [Inhibitor]: DIET, Species: MOUSE, Strain/Sex: CD-1/FEMALE (10,10)/(10,10), Target Tissue: Type of Lesion: COLON: ADENOMA, Dose [Carcinogen]: 10 MG/KG ONCE, Promoter: DEXTRAN SODIUM SULFATE (9011-18-1)", "value": "10/10 (100%), 9/10 (90%), 10%, not significant"}, {"measurement": "tumour outcome (control, treated, inhibition, significance)", "setting": "Carcinogen: N-METHYL-N-NITROSOUREA [684-93-5], Dose [Inhibitor]: 0.15% IN DIET FROM WKS 10 TO 52 (STUDY DURATION: 52 WKS), Route [Inhibitor]: ORAL (DIET), Species: MOUSE, Strain/Sex: PEROXISOME PROLIFERATOR- ACTIVATED RECEPTOR (PPAR GAMMA +/+)/MALE (11,9)/(13,11), Target Tissue: Type of Lesion: STOMACH: CARCINOMA, Dose [Carcinogen]: 240 PPM IN DRINKING WATER ON ALTERNATE WKS OVER A 10 WK PERIOD", "value": "(5/9) 56%, (1/11) 9%, 84%, p<0.01"}, {"measurement": "tumour outcome (control, treated, inhibition, significance)", "setting": "Carcinogen: N-METHYL-N-NITROSOUREA [684-93-5], Dose [Inhibitor]: 0.15% IN DIET FROM WKS 10 TO 52 (STUDY DURATION: 52 WKS), Route [Inhibitor]: ORAL (DIET), Species: MOUSE, Strain/Sex: PEROXISOME PROLIFERATOR- ACTIVATED RECEPTOR (PPAR GAMMA +/-)/MALE (23,19)/(19,15), Target Tissue: Type of Lesion: STOMACH: CARCINOMA, Dose [Carcinogen]: 240 PPM IN DRINKING WATER ON ALTERNATE WKS OVER A 10 WK PERIOD", "value": "(17/19) 90%, (12/15) 80%, 11%, not significant"}]}, {"molecule": "CC1(C)[C@@H](O[C@H]2O[C@H](C(=O)O)[C@@H](O)[C@H](O)[C@H]2O[C@@H]2O[C@H](C(=O)O)[C@@H](O)[C@H](O)[C@H]2O)CC[C@]2(C)[C@H]3C(=O)C=C4[C@@H]5C[C@@](C)(C(=O)O)CC[C@]5(C)CC[C@@]4(C)[C@]3(C)CC[C@@H]12", "values": [{"measurement": "tumour outcome (control, treated, inhibition, significance)", "setting": "Carcinogen: 7,12-DIMETHYLBENZ[A]ANTHRACENE, 57-97-6, Dose [Inhibitor]: 0, 0.05% IN DRINKING WATER BEGINNING 50 D PRIOR TO CARCINOGEN TREATMENT AND CONTINUING FOR THE DURATION OF STUDY (STUDY, Route [Inhibitor]: ORAL, Species: MOUSE, Strain/Sex: SENCAR/FEMALE, Target Tissue: Type of Lesion: SKIN: TUMOR, Dose [Carcinogen]: 40 NMOL IN 0.2 ML ACETONE ONCE, Promoter: 12-O-TETRADECANOYLPHORBOL-13-ACETATE, 16561-29-8", "value": "100%, 100%, 0%, not significant"}, {"measurement": "tumour outcome (control, treated, inhibition, significance)", "setting": "Carcinogen: 7,12-DIMETHYLBENZ[A]ANTHRACENE, 57-97-6, Dose [Inhibitor]: 0, 0.05% IN DRINKING WATER FOR 50 D PRIOR TO CARCINOGEN TREATMENT (STUDY DURATION: 23 WK), Route [Inhibitor]: ORAL, Species: MOUSE, Strain/Sex: SENCAR/FEMALE, Target Tissue: Type of Lesion: SKIN: TUMOR, Dose [Carcinogen]: 40 NMOL IN 0.2 ML ACETONE ONCE, Promoter: 12-O-TETRADECANOYLPHORBOL-13-ACETATE, 16561-29-8", "value": "100%, 100%, 0%, not significant"}, {"measurement": "tumour outcome (control, treated, inhibition, significance)", "setting": "Carcinogen: DIETHYLNITROSAMINE, 55-18-5, Dose [Inhibitor]: 0, 2 MG 3/WK FOR 32 WK BEGINNING 2 WK PRIOR TO CARCINOGEN TREATMENT (STUDY DURATION:32 WK), Route [Inhibitor]: INTRAMUSCULAR, Species: MOUSE, Strain/Sex: BALB/MALE, Target Tissue: Type of Lesion: LIVER :HEPATOCELLULAR CARCINOMA, Dose [Carcinogen]: 75 MG/KG 1/WK FOR 3 WK THEN 100 MG/KG 1/WK FOR 3 WK, Promoter: NONE USED", "value": "7/11 (64%), 3.14 (21%), 65%, p<0.05"}]}, {"molecule": "CN(C)C(=O)Oc1cccc([N+](C)(C)C)c1", "values": [{"measurement": "tumour outcome (control, treated, inhibition, significance)", "setting": "Carcinogen: AZOXYMETHANE, 25843-45-2, Dose [Inhibitor]: 0.1 MG/KG BW 1/2D IN DEPOT FORM BEGINNING 3 WK PRIOR TO FIRST CARCINOGEN DOSE (STUDY DURATION: 40 WK), Route [Inhibitor]: SUBCUTANEOUS, Species: RAT, Strain/Sex: WISTAR/MALE, Target Tissue: Type of Lesion: COLON: TUMOR, Dose [Carcinogen]: 7.4 MG/KG BW IN 0.9% SALINE SOLUTION 1/WK FOR 10 WK, Promoter: NONE USED", "value": "18/20 (90%), 9/19 (47%), 47%, p<0.02"}, {"measurement": "tumour outcome (control, treated, inhibition, significance)", "setting": "Carcinogen: N-METHYL-N'-NITRO-N-NITROSOGUANIDINE, 70-25-7, Dose [Inhibitor]: 0, 0.075 MG/KG 1/2 D BEGINNING POST CARCINOGEN TREATMENT (STUDY DURATION: 52 WK), Route [Inhibitor]: SUBCUTANEOUS, Species: RAT, Strain/Sex: WISTAR/MALE, Target Tissue: Type of Lesion: STOMACH: ADENOCARCINOMA, Dose [Carcinogen]: 75 UG/ML IN DRINKING WATER FOR 25 WK, Promoter: NONE USED", "value": "16/20 (80%), 7/18 (39%), 51%, p<0.05"}, {"measurement": "tumour outcome (control, treated, inhibition, significance)", "setting": "Carcinogen: N-METHYL-N'-NITRO-N-NITROSOGUANIDINE, 70-25-7, Dose [Inhibitor]: 0, 0.1 MG/KG IN OLIVE OIL SUSPENSION 1/D BEGINNING 1 WK POST LAST CARCINOGEN DOSE AND CONTINUING FOR DURATION OF STUDY (, Species: RAT, Strain/Sex: WISTAR/MALE, Target Tissue: Type of Lesion: GLANDULAR STOMACH: ADENOCARCINOMA, Dose [Carcinogen]: 50 UG/ML IN DRINKING WATER FOR 25 WK, Promoter: NONE USED", "value": "15/18 (83%), 7/19 (37%), 55%, p<0.02"}]}, {"molecule": "CC(C)(O)/C=C/C(=O)[C@](C)(O)[C@H]1[C@H](O)C[C@@]2(C)[C@@H]3CC=C4[C@@H](C[C@H](O)[C@@H](O)C4(C)C)[C@]3(C)C(=O)C[C@]12C", "values": [{"measurement": "tumour outcome (control, treated, inhibition, significance)", "setting": "Carcinogen: 7,12-DIMETHYLBENZ[A]ANTHRACENE, 57-97-6, Dose [Inhibitor]: 0, 85 NMOL IN 0.1 ML ACETONE APPLIED 1 HR PRIOR TO EACH PROMOTER DOSE 2/WK FOR 20 WK (STUDY DURATION: 21 WK), Route [Inhibitor]: DERMAL, Species: MOUSE, Strain/Sex: ICR/FEMALE, Target Tissue: Type of Lesion: SKIN: PAPILLOMA, Dose [Carcinogen]: 100 UG IN 0.1 ML ACETONE ONCE, Promoter: 12-O-TETRADECANOYLPHORBOL-13-ACETATE, 16561-29-8", "value": "100%, 100%, 0%, not significant"}]}]}
